# Laboratory results reported in US20240254138A1, “TRICYCLIC PYRIMIDINES AS CYCLIN-DEPENDENT KINASE 7 (CDK7) INHIBITORS” (JANSSEN PHARMACEUTICA NV, priority 2021, published 2024).
# Where two headings read alike, the source gives them in different places.
# Tests used:
# [1] = tested on: RNA Polymerase II Serine 5 phosphorylation in A549 cells overexpressing CDK7-mutant (C312S); assay: Imaging-based cellular RNA PolII Ser5 phosphorylation assay in A549 cells overexpressing CDK7-mutant (C312S); assay type: cell-based, human; details: RNA PolII Ser5 phosphorylation, averaged over all measurements; for IC50: Homo sapiens, A549, A549 cells overexpressing CDK7-mutant (C312S), read-out: CDK7_A549 mutant hCDK7(pIC50) (converted)
# How it was run: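 Readout was automated imaging of anti-phospho-Ser5 Rpb1 CTD immunofluorescence, with IC50 fitted to % control versus concentration. Cells were A549 stably overexpressing non-covalently targetable CDK7 C312S alongside wild-type, exposed to compound 3 h at 37 °C. DMSO and 10 μM reference compound served as controls.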
# [2] = tested on: RNA Polymerase II Serine 5 phosphorylation (Rpb1 CTD, downstream substrate of CDK7) in A549 cells; assay: Imaging-based cellular RNA PolII Ser5 phosphorylation assay in A549 cells; assay type: cell-based, human; details: wild-type CDK7, RNA PolII Ser5 phosphorylation, averaged over all measurements; for IC50: Homo sapiens, A549, A549 cells, read-out: CDK7_A549 Wild-type CDK7 (pIC50) (converted)
# How it was run: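 IC50 derived by fitting % control (DMSO high, 10 μM reference low) against concentration, with Hill slope. Readout: high-content imaging of phospho-Ser5 Rpb1 CTD antibody staining in fixed, permeabilized A549 cells exposed to compound 3 h after 20 h culture in 1% FBS DMEM.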
# [3] = target: CDK7/cyclinH/MAT1 trimeric complex (Homo sapiens, UniProt P50613); assay: In vitro CDK7 assay, potency of irreversible covalent inhibitors (kinact/KI), coupled PK/LDH ADP readout at 340 nm
# [4] = CDK7 (20 nM enz.) (KI, μM), 20 nM enzyme
# [5] = read-out: CDK7 (20 nM enz.) (kinact, s^−1), 20 nM enzyme
# [6] = read-out: CDK7 (20 nM enz.) (kinact/KI, M^−1*s^−1), 20 nM enzyme
# [7] = CDK7 (KI(μM)), […], 1 mM ATP, room temperature, averaged values over all measurements
# [8] = read-out: CDK7 (kinact, s^−1), kinact = maximal rate of inactivation, 1 mM ATP, room temperature, averaged values over all measurements
# [9] = read-out: CDK7 (kinact/KI, M^−1*s^−1), potency of irreversible covalent inhibitors, 1 mM ATP, room temperature, averaged values over all measurements
# [10] = read-out: CDK7 (20 nM enz.) (kobs/[I], M^−1*s^−1), 20 nM enzyme
# Chain of CDK7/cyclinH/MAT1 trimeric complex (P50613 whole entry): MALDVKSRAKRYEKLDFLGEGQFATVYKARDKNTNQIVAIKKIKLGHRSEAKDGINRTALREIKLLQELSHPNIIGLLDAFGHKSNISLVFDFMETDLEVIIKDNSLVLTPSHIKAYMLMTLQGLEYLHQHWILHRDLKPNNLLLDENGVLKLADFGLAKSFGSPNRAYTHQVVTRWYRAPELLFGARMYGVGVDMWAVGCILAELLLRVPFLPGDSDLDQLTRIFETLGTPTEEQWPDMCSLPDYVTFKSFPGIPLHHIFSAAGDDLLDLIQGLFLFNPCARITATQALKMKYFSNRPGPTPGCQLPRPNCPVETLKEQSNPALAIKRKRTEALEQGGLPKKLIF
# Chain of CDK7/cyclinH/MAT1 trimeric complex (P51946 whole entry partner): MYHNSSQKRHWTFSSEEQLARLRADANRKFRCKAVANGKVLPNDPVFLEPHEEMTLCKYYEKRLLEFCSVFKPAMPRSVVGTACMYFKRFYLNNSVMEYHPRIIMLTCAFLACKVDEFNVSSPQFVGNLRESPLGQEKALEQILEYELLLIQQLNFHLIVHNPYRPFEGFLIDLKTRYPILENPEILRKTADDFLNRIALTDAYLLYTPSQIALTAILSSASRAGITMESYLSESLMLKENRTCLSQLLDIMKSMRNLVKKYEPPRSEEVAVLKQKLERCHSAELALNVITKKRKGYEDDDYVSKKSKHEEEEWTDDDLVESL
# Chain of CDK7/cyclinH/MAT1 trimeric complex (P51948 whole entry partner): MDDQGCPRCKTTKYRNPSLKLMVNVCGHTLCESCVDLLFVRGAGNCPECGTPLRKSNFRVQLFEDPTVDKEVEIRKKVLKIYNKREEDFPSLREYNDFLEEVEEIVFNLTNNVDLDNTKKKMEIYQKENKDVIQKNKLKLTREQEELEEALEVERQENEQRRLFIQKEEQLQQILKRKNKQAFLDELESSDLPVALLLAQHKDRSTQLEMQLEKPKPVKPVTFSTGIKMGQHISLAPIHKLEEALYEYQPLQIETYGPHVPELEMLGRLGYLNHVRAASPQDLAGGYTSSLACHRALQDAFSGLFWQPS
SMILES,IC50 [1] [nM],IC50 [2] [nM],"Ki [3, 4] [µM]","kinact [3, 5] [s⁻¹]","kinact/KI [3, 6] [M⁻¹ s⁻¹]",CDK7_A549 mutant hCDK7(pIC50) ([1]; A549 cells overexpressing CDK7-mutant (C312S)),CDK7_A549 Wild-type CDK7 (pIC50) ([2]; A549 cells),"CDK7 (20 nM enz.) (kinact/KI, M^−1*s^−1) ([3]; 20 nM enzyme) [M⁻¹ s⁻¹]","Ki [3, 7] [µM]","kinact [3, 8] [s⁻¹]","kinact/KI [3, 9] [M⁻¹ s⁻¹]","kinact/KI [3, 10] [M⁻¹ s⁻¹]"
C=CC(=O)N1CC[C@H](N2CC(c3cc(C)c4c(c3)Nc3nccc(C5CCOCC5)c3CO4)C2)[C@H](F)C1 (mixture of isomers) [Compound 200],~10000,93.3,0.0506,4.11e-05,812,,,,,,,
C=CC(=O)N1CC[C@@H](N2CC(c3cc(C)c4c(c3)Nc3nccc(-c5cnn(C)c5)c3CO4)C2)[C@@H](F)C1 (mixture of isomers) [Compound 201],~10000,89.1,0.0701,3.6e-05,514,,,,,,,
C=CC(=O)N1CC[C@@H](N2CC(c3cc(C)c4c(c3)Nc3nccc(N5CCOCC5)c3CO4)C2)[C@@H](F)C1 (mixture of isomers) [Compound 202],> 10000,107,0.0239,3.55e-05,1490,,,,,,,
C=CC(=O)N1CC[C@@H](N2CC(c3cc(C)c4c(c3)Nc3nccc(-c5cnn(C)c5)c3CO4)C2)[C@H](F)C1 (mixture of isomers) [Compound 203],> 10000,81.3,0.0523,4.19e-05,802,,,,,,,
C=CC(=O)N1CC[C@@H](N2CC(c3cc(C)c4c(c3)Nc3nccc(N5CCOCC5)c3CO4)C2)[C@H](F)C1 (mixture of isomers) [Compound 207],> 10000,83.2,0.0443,3.83e-05,865,,,,,,,
C=CC(=O)N1CC[C@H](N2CC(c3cc4c(c(C)n3)OCc3c(-c5cnn(C)c5)ccnc3N4)C2)[C@@H](F)C1 (mixture of isomers) [Compound 212],> 10000,398,0.2,2.94e-05,147,,,,,,,
C=CC(=O)N1CC[C@H]2CN(c3ccc4c(c3)Nc3nccc(N5CCOCC5)c3CO4)CC[C@@H]21 (racemic) [Compound 48],> 10000,1620,,,,,,,0.325,4.98e-05,153,
C#CCCN(C)C/C=C/C(=O)N1CC(N2CCC(c3ccc4c(c3)Nc3nccc(N5CCOCC5)c3C(C)O4)CC2)C1 (racemic) [Compound 143],> 10000,123,0.0404,6.96e-05,1720,,,,,,,
C=CC(=O)N1CC[C@@H](N2CC(c3cc(C)c4c(c3)Nc3nccc(C5CCOCC5)c3CO4)C2)[C@H](F)C1 (racemic) [Compound 206],> 10000,93.3,0.0443,4.45e-05,1000,,,,,,,
C=CC(=O)N1CC[C@H]2CN(c3ccc4c(c3)Nc3nccc(N5CCOCC5)c3CO4)CC[C@H]21 (relative stereo) [Compound 27],> 10000,3720,,,,,,,,,28.7,
"C=CC(=O)N1CC(N2CCC(c3ccc4c(c3)Nc3nccc(N5CCOC[C@@H]5C)c3CO4)CC2)C1 (single isomer, unassigned) [Compound 32]",> 10000,398,,,,,,,0.177,0.000102,578,
"C=CC(=O)N1CC[C@H](N2CCC(c3ccc4c(c3)Nc3nccc(N5CCOCC5)c3CO4)CC2)C1 (single isomer, unassigned) [Compound 38]",> 10000,158,0.0619,6.91e-05,1120,,,,,,744,
"C=CC(=O)N1CC[C@@H](N2CCC(c3ccc4c(c3)Nc3nccc(N5CCOCC5)c3CO4)CC2)C1 (single isomer, unassigned) [Compound 44]",832,< 9.77,,,,,,,,,602,1570
"C=CC(=O)N1CC(N2CC[C@H](c3ccc4c(c3)Nc3nccc(N5CCOCC5)c3CO4)C(C)(C)C2)C1 (single isomer, unassigned) [Compound 67]",> 10000,214,0.0862,6.48e-05,752,,,,,,,
"C=CC(=O)N1CC(N2CC[C@@H](c3ccc4c(c3)Nc3nccc(N5CCOCC5)c3CO4)C(C)(C)C2)C1 (single isomer, unassigned) [Compound 69]",> 10000,234,,,,,,,,,,529
"C=CC(=O)N1CC(N2CC[C@@H](c3ccc4c(c3)Nc3nccc(N5CCOCC5)c3CO4)C[C@@H]2C)C1 (single isomer, unassigned) [Compound 74]",> 10000,77.6,,,,,,,,,,1040

# More lines, now with the values ahead:
IC50 [1] [nM],IC50 [2] [nM],"Ki [3, 4] [µM]","kinact [3, 5] [s⁻¹]","kinact/KI [3, 6] [M⁻¹ s⁻¹]",CDK7_A549 mutant hCDK7(pIC50) ([1]; A549 cells overexpressing CDK7-mutant (C312S)),CDK7_A549 Wild-type CDK7 (pIC50) ([2]; A549 cells),"CDK7 (20 nM enz.) (kinact/KI, M^−1*s^−1) ([3]; 20 nM enzyme) [M⁻¹ s⁻¹]","Ki [3, 7] [µM]","kinact [3, 8] [s⁻¹]","kinact/KI [3, 9] [M⁻¹ s⁻¹]","kinact/KI [3, 10] [M⁻¹ s⁻¹]",SMILES
> 10000,251,0.267,4.9e-05,183,,,,,,,,C=CC(=O)N1CC[C@H](N2CC(c3cc4c(c(C)n3)OCc3c(-c5cnn(C)c5)ccnc3N4)C2)[C@H](F)C1 (mixture of isomers) [Compound 213]
> 10000,631,0.114,2.74e-05,240,,,,,,,,C=CC(=O)N1CC[C@@H](N2CC(c3cc4c(c(C)n3)OCc3c(N5CCOCC5)ccnc3N4)C2)[C@H](F)C1 (mixture of isomers) [Compound 220]
,,0.67,6.76e-05,,<5,6.55,100.867,,,,,C=CC(=O)N1CC(N2CC[C@H](c3ccc4c(c3)Nc3nccc(N5CCOCC5)c3CO4)[C@@H](F)C2)C1 (mixture of isomers) [Compound 226]
> 10000,178,0.129,6.25e-05,486,,,,,,,,C=CC(=O)N1CC(N2CC[C@@H](c3ccc4c(c3)Nc3nccc(N5CCOCC5)c3CO4)[C@@H](O)C2)C1 (mixture of isomers) [Compound 228]
7410,162,0.084,3.05e-05,362,,,,,,,,C=CC(=O)N1CC[C@H](N2CC(c3cc4c(c(C)n3)OCc3c(C5CCOCC5)ccnc3N4)C2)[C@H](F)C1 (mixture of isomers) [Compound 236]
> 10000,316,0.129,2.7e-05,209,,,,,,,,C=CC(=O)N1CC[C@H](N2CC(c3cc4c(c(C)n3)OCc3c(C5CCOCC5)ccnc3N4)C2)[C@@H](F)C1 (mixture of isomers) [Compound 242]
5890,120,,,397,,,,,,,,CC#CC(=O)N1CCC(N2CC(c3cc(C#N)c4c(c3)Nc3nccc(N5CCOCC5)c3[C@@H](C)O4)C2)C1 (mixture of isomers) [Compound 493]
> 10000,4070,,,3.14,,,,,,,,CC#CC(=O)N1CCC(N2CC(c3cc(C#N)c4c(c3)Nc3nccc(N5CCOCC5)c3[C@H](C)O4)C2)C1 (mixture of isomers) [Compound 494]
> 10000,550,0.472,6.66e-05,141,,,,,,,,C=CC(=O)N1CC(N2CC[C@@H](c3ccc4c(c3)Nc3nccc(N5CCOCC5)c3CO4)[C@H](O)C2)C1 (racemic) [Compound 216]
